Measurements reported in ChEMBL document CHEMBL4673289, “Design, synthesis and biological evaluation of imidazolopyridone derivatives as novel BRD4 inhibitors” (Bioorg Med Chem, 2021).
Activity calls are given as the source filed them. No cut-off for these calls is given here.

What was measured:
BXPC-3 [1] = experiment: Cell cycle arrest in human BXPC-3 cells assessed as acumulation at G0/G1 phase by measuring downregulation of CyclinE1 at 4 to 16 uM measured after 48 hrs by Western blot analysis; format: functional, cell-based; details: dose 4-16 µM
[2] = target: T1, Bromodomain-containing protein 4 (Homo sapiens, UniProt O60885); experiment: Inhibition of BRD4 (unknown origin) at 1 uM preincubated for 15 mins followed by substrate addition and measured after 1 hr by AlphaScreen assay relative to control; details: time 75.0 min
[3] = target: T1, Bromodomain-containing protein 4; experiment: Inhibition of BRD4 (unknown origin) preincubated for 15 mins followed by substrate addition and measured after 1 hr by AlphaScreen assay relative to control
SMMC-7721 = experiment: Antiproliferative activity against human SMMC-7721 cells assessed as cell growth inhibition at 2 uM measured after 48 to 72 hrs by MTT assay relative to control; format: functional; details: time 48-72 hrs, read-out: GI
BXPC-3 [4] = experiment: Antiproliferative activity against human BXPC-3 cells assessed as cell growth inhibition at 2 uM measured after 48 to 72 hrs by MTT assay relative to control; format: functional; details: time 48-72 hrs, read-out: GI
PANC-1 = experiment: Antiproliferative activity against human PANC-1 cells assessed as cell growth inhibition at 2 uM measured after 48 to 72 hrs by MTT assay relative to control; format: functional; details: time 48-72 hrs, read-out: GI
BXPC-3 [5] = experiment: Antiproliferative activity against human BXPC-3 cells assessed as cell growth inhibition measured after 48 to 72 hrs by MTT assay; format: functional, cell-based; details: dose 2-32 µM, time 48-72 hrs
BXPC-3 [6] = experiment: Anticlonogenic activity against human BXPC-3 cells assessed as reduction in colony formation at 0.25 umol/L incubated for 10 days by crystal violet staining based assay; format: functional, cell-based; details: dose 0.25 µmol/L, time 10.0 day
BXPC-3 [7] = experiment: Induction of morphological changes in human BXPC-3 cells assessed as assessed as increase in apoptotic cells at 8 uM measured after 48 hrs by light microscopic analysis; format: functional, cell-based
BXPC-3 [8] = experiment: Cell cycle arrest in human BXPC-3 cells assessed as decrease in cell population at G2/M phase at 4 to 16 uM measured after 48 hrs by AnnexinV-FITC/propidium iodide staining based flow cytometry; format: functional; details: dose 4-16 µM
BXPC-3 [9] = experiment: Cell cycle arrest in human BXPC-3 cells assessed as accumulation at sub-G1 phase at 8 to 16 uM measured after 48 hrs by AnnexinV-FITC/propidium iodide staining based flow cytometry; format: functional; details: dose 8-16 µM
BXPC-3 [10] = experiment: Cell cycle arrest in human BXPC-3 cells assessed as accumulation at G1/S phase by measuring upregulation of Rb at 4 to 16 uM measured after 48 hrs by Western blot analysis; format: functional, cell-based; details: dose 4-16 µM
BXPC-3 [11] = experiment: Cell cycle arrest in human BXPC-3 cells assessed as accumulation at G1/S phase by measuring upregulation of p57 measured after 48 hrs by Western blot analysis; format: functional, cell-based; details: dose 4-16 µM
BXPC-3 [12] = experiment: Cell cycle arrest in human BXPC-3 cells assessed as acumulation at G0/G1 phase by measuring upregulation of p27 at 4 to 16 uM measured after 48 hrs by Western blot analysis; format: functional, cell-based; details: dose 4-16 µM
BXPC-3 [13] = experiment: Cell cycle arrest in human BXPC-3 cells assessed as acumulation at G0/G1 phase by measuring downregulation of CDK2 at 4 to 16 uM measured after 48 hrs by Western blot analysis; format: functional, cell-based; details: dose 4-16 µM
BXPC-3 [14] = experiment: Cell cycle arrest in human BXPC-3 cells assessed as acumulation at G0/G1 phase by measuring downregulation of CDK4 at 4 to 16 uM measured after 48 hrs by Western blot analysis; format: functional, cell-based; details: dose 4-16 µM
BXPC-3 [15] = experiment: Induction of apoptosis in human BXPC-3 cells assessed as upregulation of Bax at 4 to 16 uM measured after 48 hrs by Western blot analysis; format: functional, cell-based; details: dose 4-16 µM
BXPC-3 [16] = experiment: Induction of apoptosis in human BXPC-3 cells assessed as downregulation of Bcl-xl at 4 to 16 uM measured after 48 hrs by Western blot analysis; format: functional, cell-based; details: dose 4-16 µM
BXPC-3 [17] = experiment: Induction of apoptosis in human BXPC-3 cells assessed as upregulation of caspase 3 at 4 to 16 uM measured after 48 hrs by Western blot analysis; format: functional, cell-based; details: dose 4-16 µM
BXPC-3 [18] = experiment: Induction of apoptosis in human BXPC-3 cells assessed as early apoptotic cells at 4 uM measured after 48 hrs by AnnexinV/propidium iodide staining based flow cytometry (reference value: 1.02 %); format: functional
BXPC-3 [19] = experiment: Induction of apoptosis in human BXPC-3 cells assessed as late apoptotic cells at 4 uM measured after 48 hrs by AnnexinV/propidium iodide staining based flow cytometry (reference value: 5.15 %); format: functional
BXPC-3 [20] = experiment: Induction of apoptosis in human BXPC-3 cells assessed as early apoptotic cells at 8 uM measured after 48 hrs by AnnexinV/propidium iodide staining based flow cytometry (reference value: 1.02 %); format: functional
BXPC-3 [21] = experiment: Induction of apoptosis in human BXPC-3 cells assessed as early apoptotic cells at 16 uM measured after 48 hrs by AnnexinV/propidium iodide staining based flow cytometry (reference value: 1.02 %); format: functional
BXPC-3 [22] = experiment: Induction of apoptosis in human BXPC-3 cells assessed as late apoptotic cells at 16 uM measured after 48 hrs by AnnexinV/propidium iodide staining based flow cytometry (reference value: 1.02 %); format: functional
Panc02 [23] = experiment: Antitumor activity against mouse Panc02 allografted in BALB/c mouse assessed as reduction in tumor weight at 50 mg/kg, ip administered every day for 20 days relative to control; format: functional; details: 480 h, time 20 day, read-out: TGI
Panc02 [24] = experiment: Antitumor activity against mouse Panc02 allografted in BALB/c mouse assessed as reduction in tumor weight at 50 mg/kg, ip administered every day for 20 days in combination with gemcitabine at 100 mg/kg relative to control; format: functional; details: 480 h, time 20 day, read-out: TGI
[25] = Toxicity in BALB/c mouse allografted with mouse Panc02 cells assessed as effect on body weight at 50 mg/kg, ip administered every day measured after 19 days; format: organism-based; details: in vivo, 456 h, time 19 day
Mus musculus [26] = experiment: Decrease in c-Myc expression in BALB/c mouse allografted with mouse Panc02 cells […] at 50 mg/kg, ip administered every day measured after 20 days by immunohistochemical analysis; format: functional, organism-based; details: time 20.0 day
Mus musculus [27] = experiment: Upregulation of caspase 3 in BALB/c mouse allografted with mouse Panc02 cells […] at 50 mg/kg, ip administered every day in combination with gemcitabine at 100 mg/kg measured after 20 days by immunohistochemical analysis; format: functional, organism-based; details: time 20.0 day
Mus musculus [28] = experiment: Downregulation of Ki67 expression in BALB/c mouse allografted with mouse Panc02 cells […] at 50 mg/kg, ip administered every day in combination with gemcitabine at 100 mg/kg measured after 20 days by immunohistochemical analysis; format: functional, organism-based; details: time 20.0 day
Panc02 [29] = experiment: Induction of apoptosis in mouse Panc02 cells allografted in BALB/c mouse assessed as condensed chromatin at 50 mg/kg, ip administered every day measured after 20 days by hematoxylin and eosin staining based assay; format: functional, organism-based; details: time 20.0 day
Panc02 [30] = experiment: Induction of apoptosis in mouse Panc02 cells allografted in BALB/c mouse assessed as condensed chromatin at 50 mg/kg, ip administered every day in combination with gemcitabine at 100 mg/kg measured after 20 days by hematoxylin and eosin staining based assay; format: functional, organism-based; details: time 20.0 day
BXPC-3 [31] = experiment: Cell cycle arrest in human BXPC-3 cells assessed as acumulation at G0/G1 phase by measuring downregulation of CyclinD1 at 4 to 16 uM measured after 48 hrs by Western blot analysis; format: functional, cell-based; details: dose 4-16 µM

inhibition [2]: 100%
IC50 [3]: 0.035 µM
Compound: CCS(=O)(=O)Nc1ccc(Oc2ccccc2F)c(-c2cn(C)c(=O)c3cncn23)c1
Activity (BXPC-3 [1]): Active
inhibition of growth at 2 µM (SMMC-7721): 15.1%
inhibition of growth at 2 µM (BXPC-3 [4]): 38.4%
inhibition of growth at 2 µM (PANC-1): 16.5%
growth inhibition (GI) (BXPC-3 [5]): Dose-dependent effect
Activity (BXPC-3 [6]): Active
Activity (BXPC-3 [7]): Active
Activity (BXPC-3 [8]): Active
Activity (BXPC-3 [9]): Active
Activity (BXPC-3 [10]): Active
Activity (BXPC-3 [11]): Active
Activity (BXPC-3 [12]): Active
Activity (BXPC-3 [13]): Active
Activity (BXPC-3 [14]): Active
Activity (BXPC-3 [15]): Active
Activity (BXPC-3 [16]): Active
Activity (BXPC-3 [17]): Active
Activity (BXPC-3 [18]): 1.46%
Activity (BXPC-3 [19]): 8.59%
Activity (BXPC-3 [20]): 1.61%
Activity (BXPC-3 [21]): 2.35%
Activity (BXPC-3 [22]): 19.21%
inhibition in vivo at 50 mg/kg (Panc02 [23]): 79%
inhibition in vivo at 50 mg/kg (Panc02 [24]): 85%
Activity [25]: Non-Toxic
Activity (Mus musculus [26]): Active
Activity (Mus musculus [27]): Active
Activity (Mus musculus [28]): Active
Activity (Panc02 [29]): Active
Activity (Panc02 [30]): Active
Activity (BXPC-3 [31]): Active
